# Test system: cell cycle in zebrafish embryos
# Assay: Cell cycle profiles in zebrafish embryos (propidium iodide, flow cytometry)
# Format: in vivo
# Conditions: zebrafish embryos incubated from 4 hours post fertilization overnight, DNA content by flow cytometry
# Description: FIG. 2 is a group of cell cycle profiles of active compounds tested in 24 hour zebrafish embryos. Specifically, embryos incubated with E3 fishwater (panel A), hydroxyurea (panel B), compound C4 (panel C), and compound C3 (panel D) are shown. After overnight incubation, single cell solution of embryos was prepared and incubated with propidium iodide. Samples were then subjected to flow cytometry to determine DNA content (X axis). Small arrowheads below the X-axis are placed beneath the diploid (G1) n=2 peak, and the tetraploid (G2/M) n=4 peaks. Cells between these two peaks are in S phase. Cells to the left of the G1 peak (sub G1 peak) have lost chromosomes (n<2), and are presumably dying (indicated as % debris in the right hand legend of each panel). Relative numbers of cells (Y-axis) in the different phases of the cell cycle are given on the right side of each panel.
# All of these compounds were tested for effects on the cell cycle in zebrafish embryos. Zebrafish embryos were incubated at 4 hours post fertilization with compounds or controls. After overnight incubation in compounds, single cell solution of embryos was prepared and incubated with propidium iodide. Samples were then subjected to flow cytometry to determine DNA content. […] Examples are depicted in FIG. 2.
# In FIG. 2, embryos incubated with (A) E3 fishwater, (B) hydroxyurea, (C) compound C4, and (D) C3 are shown. Diploid (G1, n=2) and tetraploid (G2/M, n=4) peaks are identified on the X-axis. Small arrowheads below the X-axis are placed beneath the dipoid (G1) n=2 peak, and the tetraploid (G2/M) n=4 peaks. Cells between these two peaks are in S phase. Cells to the left of the G1 peak (sub G1 peak) have lost chromosomes (n<2) and are presumably dying (indicated as % debris in the right hand legend of each panel). Relative numbers of cells (Y axis) in the different phases of the cell cycle are given on the right side of each panel.
smiles,measurement,value
"NC(=O)NO [hydroxyurea, reference compound]",Effect on the cell cycle,S phase arrest

# Reference: patent US8039505B2, “Compounds for modulating T-cells” (University of Utah Research Foundation, priority 2007, dated 2011)
